Data taken from paper PMC6644994, “Chemical Ligand Space of Cereblon” (ACS Omega, 2018).
“Also recorded” adds a separate entry of the source. Where two headings read alike, the source gives them in different places.

Tests used:
MsCI4 [1] = target: MsCI4 (Magnetospirillum gryphiswaldense, UniProt A4TVL0, W36F/W59F); assay: biochemical; format: binding
[2] = test system: zebrafish embryos (cereblon-mediated pectoral fin malformation); assay: Zebrafish pectoral fin deformity assay
MsCI4 [3] = target: T1, MsCI4 (Magnetospirillum gryphiswaldense, UniProt A4TVL0); assay: X-ray crystallography of MsCI4·ligand crystals obtained by soaking; format: binding; design: key to binding verified via crystallography (symbol in Table S1): X-tal: binding verified via crystallography; conditions: for binding verified via crystallography (in words): MsCI4·thalidomide crystals soaked with solid rolipram
T1 sequence (A4TVL0 1-124): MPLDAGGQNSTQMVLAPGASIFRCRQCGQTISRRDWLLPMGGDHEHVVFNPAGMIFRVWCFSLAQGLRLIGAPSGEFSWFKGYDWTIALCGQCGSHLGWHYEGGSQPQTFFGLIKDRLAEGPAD
Excerpt: In a next step, we characterized the binding of representative compounds via X-ray crystallography. […] (II) The structures with ethosuximide, hydantoin, 2-thiohydantoin, and thiazolidine-2,4-dione verify that imides with 5-membered rings have the same basic binding mode as 6-membered rings. (III) The binding mode of γ-butyrolactam, δ-valerolactam and rolipram verifies that lactams have a binding mode analogous to imides, with their carbonyl group occupying position d. […] Importantly, in a direct comparison with the crystal structure of the human thalidomide-binding domain, none of the protruding moieties of the effectors is interacting or in contact with any nonconserved amino acid side chain, such that their binding modes are not influenced by species-specific differences (Figure S2).
After 40 h of soaking, these crystals were loop-mounted and flash-cooled in liquid nitrogen. Data were collected at 100 K and a wavelength of 1 Å on a PILATUS 6M-F detector at beamline X10SA of the Swiss Light Source (PSI, Villigen, Switzerland). Diffraction images were indexed, integrated, and scaled using XDS.[34] […] Data collection and refinement statistics are summarized together with PDB accession codes in Table S2. All molecular depictions were prepared using MolScript,[37] BobScript,[38] and Raster3D.[39]

[4] = test system: zebrafish embryos (cereblon-mediated pectoral fin malformation); conditions: cited from earlier work
[5] = Table S1, affinity for MsCI4, FRET assay, read-out: Ki
[6] = zebrafish embryos, 400 μM, 75 h post fertilization

MsCI4 (Magnetospirillum gryphiswaldense, UniProt A4TVL0, W36F/W59F), sequence (A4TVL0 entry or part of it W36F/W59F): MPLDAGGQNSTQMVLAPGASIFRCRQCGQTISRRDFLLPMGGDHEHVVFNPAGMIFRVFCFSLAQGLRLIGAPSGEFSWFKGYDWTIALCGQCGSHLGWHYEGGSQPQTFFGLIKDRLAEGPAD

Compound	Ki (MsCI4 [1]) [µM]	binding to MsCI4 in the FRET assay (in words) (MsCI4 [1]; FRET assay)	also measured
O=C1CCCCCCN1 [1-Azo-2-Cyclooctanone]	–	–	Ki (MsCI4 [1]; [5]): > 1000 µM
O=C1CNC(=S)N1 [2-Thiohydantoin]	13 ± 1.3	–	–
CC1(C)OC(=O)NC1=O [5,5-Dimethyl-oxazolidine-2,4-dione]	> 1000	no detectable binding	–
CCC1(C)NC(=O)NC1=O (stereo not drawn) [5-Ethyl-5-methyl-hydantoin]	> 1000	no binding was detectable	–
CC1CCC(=O)N1 (stereo not drawn) [5-Methylpyrrolidin-2-one]	19 ± 6	–	–
CC(N)=O [Acetamide]	–	could not detect any binding	Ki (MsCI4 [1]; [5]): > 1000 µM
CCC1(c2ccc(N)cc2)CCC(=O)NC1=O (stereo not drawn) [Aminoglutethimide]	39 ± 3.8	–	–
O=C1CCN1 [Azetidin-2-one]	–	–	Ki (MsCI4 [1]; [5]): 77 ± 11 µM
O=C1CC(=O)NC(=O)N1 [Barbiturate]	> 1000	abolished binding	pectoral fin deformity / teratogenic effect [2, 6]: no effect; also recorded: does not cause any effects
CN1CC(=O)NC1=N [Creatinine, 2-Imino-N-methylhydantoin]	> 1000	–	–
C[C@@H]1C[C@@H]([C@H](O)CC2CC(=O)NC(=O)C2)C(=O)[C@@H](C)C1 [Cycloheximide]	> 1000	abolished binding	–
Nc1cc[nH]c(=O)n1 [Cytosine]	> 1000	–	–
O=c1ccn([C@H]2C[C@H](O)[C@@H](CO)O2)c(=O)[nH]1 [Deoxyuridine]	15 ± 1.6	–	–
O=C1CCNC(=O)N1 [Dihydrouracil, Hexahydropyrimidine-2,4-dione]	88 ± 6.8	–	–
CCC1(C)CC(=O)NC1=O (stereo not drawn) [Ethosuximide, 3-Ethyl-3-methylsuccinimide]	136 ± 11.6	–	–
O=C1CCCC(=O)O1 [Glutaric Anhydride]	> 1000	–	–
O=C1CCCC(=O)N1 [Glutarimide, Piperidine-2,6-dione]	–	–	effect on pectoral fin deformity of injecting zcrbnYW/AA mRNA (thalidomide-insensitive cereblon mutant) [2, 6]: alleviated; pectoral fin deformity / teratogenic effect [2, 6]: strongest effect; also recorded: cause developmental defects
O=C1CNC(=O)N1 [Hydantoin, Imidazolidine-2,4-dione]	43 ± 10.7	–	–
COc1ccc(C2CNC(=O)C2)cc1OCCCN1CCC(C(=O)c2ccc(F)cc2)CC1 (stereo not drawn) [Lidanserin]	25 ± 8.5	–	–
CC(=O)NCCN [N-(2-Aminoethyl)acetamide]	> 1000	could not detect any binding	–
CC(=O)NC(N)=O [N-Acetylurea]	–	detectable	Ki (MsCI4 [1]; printed in figures and text, FRET assay, read-out: Experimental Ki values for MsCI4): 522 µM
CN1CC(=O)NC1=O [N-Methylhydantoin]	16 ± 1.3	–	–

Compound	Ki (MsCI4 [1]) [µM]	binding to MsCI4 in the FRET assay (in words) (MsCI4 [1]; FRET assay)	also measured
CC(=O)NCCCCC(N)C(=O)O (stereo not drawn) [N-ε-Acetyllysine, 2-azaniumyl-6-acetamidohexanoate]	> 1000	could not detect any binding	–
NC(=O)NC(=O)Cc1ccccc1 [Phenylacetylurea]	–	did not bind	Ki (MsCI4 [1]; [5]): > 1000 µM
C1CCNCC1 [Piperidine]	> 1000	–	–
O=c1[nH]cc([C@@H]2O[C@H](CO)[C@@H](O)[C@H]2O)c(=O)[nH]1 [Pseudouridine]	> 1000	not detectable; also recorded: no detectable binding	–
S=C1CCCN1 [Pyrrolidine-2-thione]	> 1000	–	–
C1CCNC1 [Pyrrolidine]	–	–	Ki (MsCI4 [1]; [5]): > 1000 µM
COc1ccc(C2CNC(=O)C2)cc1OC1CCCC1 (stereo not drawn) [Rolipram]	–	–	binding verified via crystallography (in words) (MsCI4 [3]): binding was confirmed via crystallography; binding verified via crystallography (in words) (MsCI4 [3]; listed as rolipram): could verify its binding via crystallography; also recorded: verified by crystallography; binding verified via crystallography (symbol in Table S1) (MsCI4 [3]; Table S1): X-tal
O=C1CCC(=O)O1 [Succinic Anhydride]	> 1000	–	–
O=C1CCC(=O)N1 [Succinimide, Pyrrolidine-2,5-dione]	4.3 ± 0.5	–	–
O=C1CCC(N2C(=O)c3ccccc3C2=O)C(=O)N1 (stereo not drawn) [Thalidomide]	–	–	pectoral fin development in zebrafish embryos ([4]; zebrafish embryos): stunted pectoral fins; pectoral fin phenotype ([2]; zebrafish, 200 μM): not clearly identifiable
O=C1CSC(=O)N1 [Thiazolidine-2,4-dione]	137 ± 15.9	–	–
Cc1cn([C@H]2C[C@H](O)[C@@H](CO)O2)c(=O)[nH]c1=O [Thymidine]	204 ± 34.5	very low but measurable affinities	–
Cc1c[nH]c(=O)[nH]c1=O [Thymine, 5-Methylpyrimidine-2,4-dione]	478 ± 41.6	very low but measurable affinities	–
O=c1cc[nH]c(=O)[nH]1 [Uracil, Pyrimidine-2,4-dione]	35 ± 5.1	–	–
O=c1ccn([C@@H]2O[C@H](CO)[C@@H](O)[C@H]2O)c(=O)[nH]1 [Uridine]	13 ± 1.9	–	teratogenic effect on fin formation in zebrafish ([4]; zebrafish): same effect on fin formation
O=C1CCCN1 [γ-Butyrolactam, Pyrrolidin-2-one]	57 ± 11.6	–	–
O=C1CCCO1 [γ-Butyrolactone]	> 1000	–	–
O=C1CCCCN1 [δ-Valerolactam, Piperidin-2-one]	146 ± 20.3	–	–
O=C1CCCCCN1 [ε-Caprolactam]	> 1000	no detectable binding	–
N-(2-Hydroxypropyl)acetamide	–	could not detect any binding	Ki (MsCI4 [1]; [5]): > 1000 µM
Pyrrol-2,5-dione [Maleimide]	–	–	Ki (MsCI4 [1]; [5]): 35 ± 3.1 µM
